Assays:
[1] = molecular target: T1, human SERT (HEK293 membranes) (Homo sapiens, UniProt P31645); assay: Human SERT binding (3H-citalopram displacement)
T1 construct: purchased Perkin-Elmer; host or cells: HEK293 membranes
Experimental: Nonspecific binding was determined in the presence of 10 μM fluoxetine for the SERT. The membranes were washed and the radioactivity was counted as above.

[2] = molecular target: T2, cloned human H3 receptor, stably expressed in SK-N-MC cells (Homo sapiens, UniProt Q9Y5N1); assay: H3 receptor binding (N-[3H]-α-methylhistamine displacement); conditions: SK-N-MC membranes, 0.8 nM N-[3H]-α-methylhistamine
T2 construct: expressed in transfected cells
T2 sequence (Q9Y5N1 whole entry): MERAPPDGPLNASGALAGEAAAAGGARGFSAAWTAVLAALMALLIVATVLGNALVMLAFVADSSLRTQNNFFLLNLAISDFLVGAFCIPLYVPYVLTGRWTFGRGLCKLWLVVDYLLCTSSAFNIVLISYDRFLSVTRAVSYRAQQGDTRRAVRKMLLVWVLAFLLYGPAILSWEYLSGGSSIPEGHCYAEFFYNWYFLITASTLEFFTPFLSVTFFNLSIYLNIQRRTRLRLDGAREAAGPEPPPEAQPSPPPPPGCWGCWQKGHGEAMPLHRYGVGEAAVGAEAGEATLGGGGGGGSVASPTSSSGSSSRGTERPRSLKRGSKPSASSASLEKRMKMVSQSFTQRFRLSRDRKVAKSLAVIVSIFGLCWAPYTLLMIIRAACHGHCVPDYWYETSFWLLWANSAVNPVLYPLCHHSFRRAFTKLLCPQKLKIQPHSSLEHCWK

Rat SERT = molecular target: T3, Rat SERT (Rattus norvegicus, UniProt P31652); assay: Rat brain SERT binding ([3H]-Citalopram displacement); conditions: rat brain membranes, 0.6 nM [3H]-Citalopram; read-out: Rat SERT Ki
T3 construct: A rat brain without cerebellum (Zivic Laboratories, Inc.—Pittsburgh, Pa.) was homogenized; tissue Zivic Laboratories, Inc; host or cells: rat brain without cerebellum, membranes
T3 sequence (P31652 whole entry): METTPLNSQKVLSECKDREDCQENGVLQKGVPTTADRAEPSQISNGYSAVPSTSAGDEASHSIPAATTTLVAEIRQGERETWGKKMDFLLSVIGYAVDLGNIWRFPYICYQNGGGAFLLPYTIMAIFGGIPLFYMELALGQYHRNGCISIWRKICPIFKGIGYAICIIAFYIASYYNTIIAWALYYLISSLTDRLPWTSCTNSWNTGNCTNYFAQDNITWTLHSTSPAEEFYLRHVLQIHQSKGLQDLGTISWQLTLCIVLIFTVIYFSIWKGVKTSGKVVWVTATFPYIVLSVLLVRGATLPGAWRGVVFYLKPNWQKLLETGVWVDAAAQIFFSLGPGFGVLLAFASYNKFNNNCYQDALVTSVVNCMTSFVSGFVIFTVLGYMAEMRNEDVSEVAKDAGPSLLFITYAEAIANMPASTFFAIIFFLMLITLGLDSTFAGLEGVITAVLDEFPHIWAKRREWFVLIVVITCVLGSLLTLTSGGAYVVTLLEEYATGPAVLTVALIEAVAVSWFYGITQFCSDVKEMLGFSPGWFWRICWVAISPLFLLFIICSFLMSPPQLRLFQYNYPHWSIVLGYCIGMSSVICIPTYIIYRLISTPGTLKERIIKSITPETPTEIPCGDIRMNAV

[3] = molecular target: T4, human H3 receptor (SK-N-MC cells) (Homo sapiens, UniProt Q9Y5N1); assay: Cyclic AMP accumulation (β-galactosidase reporter, Schild analysis vs histamine); format: cell-based; conditions: read-out: H3 pA2 (converted)
T4 construct: expressed in transfected cells; host or cells: SK-N-MC sublines with CRE-beta-galactosidase reporter
T4 sequence (Q9Y5N1 whole entry): as the sequence (Q9Y5N1 whole entry) above
Experimental: The reporter gene (β-galactosidase) is under the control of multiple cyclic AMP responsive elements. In 96-well plates, histamine was added directly to the cell media followed 5 min later by an addition of forskolin (5 μM final concentration). When appropriate, antagonists were added 10 min prior to agonist addition. After a 6-h incubation at 37° C., the media was aspirated and the cells washed with 200 μL of phosphate-buffered saline followed by a second aspiration. Cells were lysed with 25 μL 0.1× assay buffer (10 mM Na-phosphate, pH 8, 0.2 mM MgSO4, 0.01 mM MnCl2) and incubated at rt for 10 min. Cells were then incubated for 10 min with 100 μL of 1× assay buffer containing 0.5% Triton and 40 mM β-mercaptoethanol. Color was developed using 25 μL of 1 mg/mL substrate solution (chlorophenolred β-D galactopyranoside; Roche Molecular Biochemicals, Indianapolis, Ind.).

T1 sequence (P31645 whole entry): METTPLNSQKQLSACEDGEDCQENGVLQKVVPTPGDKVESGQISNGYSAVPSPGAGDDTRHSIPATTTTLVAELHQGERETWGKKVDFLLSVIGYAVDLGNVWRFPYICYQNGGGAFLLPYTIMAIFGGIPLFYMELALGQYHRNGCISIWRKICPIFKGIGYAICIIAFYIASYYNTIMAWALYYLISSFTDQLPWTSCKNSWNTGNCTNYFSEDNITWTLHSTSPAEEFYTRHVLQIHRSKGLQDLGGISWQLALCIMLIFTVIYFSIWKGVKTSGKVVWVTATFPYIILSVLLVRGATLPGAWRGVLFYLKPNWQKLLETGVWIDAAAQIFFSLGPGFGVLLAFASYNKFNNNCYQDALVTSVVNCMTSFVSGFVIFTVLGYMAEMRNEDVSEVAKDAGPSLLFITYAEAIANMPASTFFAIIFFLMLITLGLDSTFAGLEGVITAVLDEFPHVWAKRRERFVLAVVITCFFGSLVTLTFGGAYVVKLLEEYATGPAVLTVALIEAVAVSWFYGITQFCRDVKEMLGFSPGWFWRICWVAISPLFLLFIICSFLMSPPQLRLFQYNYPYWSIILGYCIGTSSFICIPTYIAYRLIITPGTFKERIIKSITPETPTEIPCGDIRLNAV

Compound	Ki [1] [nM]	Ki [2] [nM]	Ki (Rat SERT) [nM]	Kb [3] [nM]
COc1ccc([C@@H]2CN3CCC[C@@H]3c3cc(OCCCN4CCOCC4)ccc32)cc1 [Example 92, (1R,6S)-6-(4-Methoxy-phenyl)-9-(3-morpholin-4-yl-propoxy)-1,2,3,5,6,10b-hexahydro-pyrrolo[2,1-a]isoquinoline]	4	16	2.2	15.8
c1ccc([C@H]2CN3CCC[C@H]3c3cc(OCCCN4CCCCC4)ccc32)cc1 (relative stereo) [Example 1A, Cis-6-Phenyl-9-(3-piperidin-1-yl-propoxy)-1,2,3,5,6,10b-hexahydro-pyrrolo[2,1a]isoquinoline]	4	0.9	2	0.2
COc1ccc([C@H]2CN3CCC[C@H]3c3cc(OC4CCN(C(C)C)CC4)ccc32)cc1 (relative stereo) [Example 28]	5	0.4	4	
COc1cccc([C@H]2CN3CCC[C@H]3c3cc(OCCCN4CCCCC4)ccc32)c1 (relative stereo) [Example 10A, Cis-6-(3-Methoxy-phenyl)-9-(3-piperidin-1-yl-propoxy)-1,2,3,5,6,10b-hexahydro-pyrrolo[2,1-a]isoquinoline]	2	2	5	0.158
CN(C)c1ccc([C@H]2CN3CCC[C@H]3c3cc(OCCCN4CCCCC4)ccc32)cc1 (relative stereo) [Example 30]	2	2	3	
COc1ccc([C@H]2CN3CCC[C@H]3c3cc(OCCCN4CCOC[C@@H]4C)ccc32)cc1 [Example 46, Cis-6-(4-Methoxy-phenyl)-9-[3-(3S-methyl-morpholin-4-yl)-propoxy]-1,2,3,5,6,10b-hexahydro-pyrrolo[2,1-a]isoquinoline]	9	4	14	
FC(F)(F)Oc1ccc([C@H]2CN3CCC[C@H]3c3cc(OCCCN4CCCCC4)ccc32)cc1 (relative stereo) [Example 17]	7	4	11	6.31
N#Cc1ccc([C@@H]2CN3CCC[C@H]3c3cc(OCCCN4CCCCC4)ccc32)cc1 (relative stereo) [Example 41A, Cis-4-[9-(3-Piperidin-1-yl-propoxy)-1,2,3,5,6,10b-hexahydro-pyrrolo[2,1-a]isoquinolin-6-yl]-benzonitrile]	59	1	25	0.794
FC(F)(F)c1cccc([C@H]2CN3CCC[C@H]3c3cc(OCCCN4CCCCC4)ccc32)c1 (relative stereo) [Example 67]	9	2	22	0.501
COc1ccc([C@H]2CN3CCC[C@@H]3c3cc(OCCCN4CCOCC4)ccc32)cc1 [Example 94, (1R,6R)-6-(4-Methoxy-phenyl)-9-(3-morpholin-4-yl-propoxy)-1,2,3,5,6,10b-hexahydro-pyrrolo[2,1-a]isoquinoline]	111	4	53	
COc1cccc([C@@H]2CN3CCC[C@H]3c3cc(OCCCN4CCCCC4)ccc32)c1 (relative stereo) [Example 10B, Trans-6-(3-Methoxy-phenyl)-9-(3-piperidin-1-yl-propoxy)-1,2,3,5,6,10b-hexahydro-pyrrolo[2,1-a]isoquinoline]		2	37	0.251
COc1ccc([C@@H]2CN3CCC[C@H]3c3cc(OCCCN4CCOCC4)ccc32)cc1 [Example 95, (1S,6S)-6-(4-Methoxy-phenyl)-9-(3-morpholin-4-yl-propoxy)-1,2,3,5,6,10b-hexahydro-pyrrolo[2,1-a]isoquinoline]	13	6	11	
